From patent US11325937B2, “Glycoside compound and preparation method therefor, composition, application, and intermediate” (SHANGHAI HUTCHISON PHARMACEUTICALS LIMITED, priority 2018, dated 2022)

Key:
[1] = tested on: HUVEC-12 endothelial cells; experiment: Proliferation of HUVEC-12 endothelial cells (MTT); format: cell-based, Human; details: HUVEC-12 treated with supernatant of macrophages co-incubated 24 h with compound, 10 μM (s- groups)
Protocol: The experiment included seven groups. In Group 1, HUVEC-12 endothelial cells (purchased from Shanghai RongChuang Biotech Co., Ltd.) were treated directly with simple DMEM medium (Gibcol, Shanghai) containing 10% FBS ([…], Germany) (control). In Group 2, the endothelial cells were treated with the supernatant obtained 24 h after macrophages were cultured with DMEM medium containing 10% FBS (s-control). […] In Group 5, the endothelial cells cultured with DMEM medium containing 10% FBS were treated directly with Cpd-18 (Salvianolate) (cpd-18, 10 μM). In Group 6, the endothelial cells were treated with the supernatant obtained after macrophages cultured with DMEM medium containing 10% FBS were treated and co-incubated with Cpd-18 (Salvianolate, 10 μM) for 24 h (s-cpd18). In Group 7, the endothelial cells cultured with DMEM medium containing 10% FBS were treated directly with VEGFD (Recombinant Human VEGF165, 10 ng/mL). Human umbilical vein endothelial cells HUVEC-12 in logarithmic growth phase were counted, adjusted to a cell density of 2.5×10^4 cells/mL, and inoculated in 100 μL per well in a 96-well plate. […] Based on the measured absorbance (OD), the HUVEC-12 endothelial cells treated directly with simple DMEM medium (control) were used as a blank control (Group 1), the percentage of cell proliferation in each group was calculated, and compared. […]

[2] = tested on: rats with permanent ligation of bilateral common carotid arteries (2VO); experiment: Chronic cerebral ischemia model in rats with permanent ligation of bilateral common carotid arteries (2VO); format: in vivo
Text: After obtaining the active molecules that can promote the expression of VEGF-A mRNA in the animal model of inflammatory angiogenesis, a rat model of cerebral infarction was used for further verification. Following the method as described in Longa, E. Z., Longa, E. Z., Weinstein, P. R., Carlson, S. & Commin, R. Reversible middle cerebral artery occlusion without craniectomy in rats. [J]. Stroke, 1989. 1: 84-91, an acute cerebral infarction model was established in rats with middle cerebral artery occlusion (MCAO); and following the method as described in C. dela Torre, T. Fortin, G. A. S. Park, K. S. Butler, P. Kozlowski, B. A. Pappas, H. de Socarraz, J. K. Saunders and M. T. Richard. [J]. Brain Research, 1992. 582:186-195, a chronic cerebral ischemia model was established in rats with permanent ligation of bilateral common carotid arteries (2VO). The inhibition on cerebral infarction and neuroprotection for brain injury of the active molecules screened in Effect Example 2 were verified.
In the later period of the present invention, a chronic cerebral ischemia model was established in rats with permanent ligation of bilateral common carotid arteries (2VO). TG-028 (5 mg/kg) was administered to 5 rats in each group daily by intraperitoneal injection for 3 weeks. The effects of TG-028 and the control drug Edaravone (40 mg/kg) in the rat model of chronic cerebral ischemia were observed.
3 weeks after the establishment of the rat model of 2VO chronic cerebral ischemia, the Morris water maze experiment was performed on the test rats to determine the effects of drugs on animal learning and memory. The test rats were subjected to ambient positioning and memory training for 5 days. On Day 5 of the training, a positioning navigation experiment was carried out, and the duration for each group of rats from the time of entering the water from different water entry points facing the pool wall to the time of finding the platform, that is, the escape incubation period, was recorded. On Day 6, the platform was removed and a space exploration experiment was carried out. The swimming time of the rats in the target quadrant, the dwell time in the target quadrant, the distance in the target quadrant, and the number of passes through the platform were recorded in 120 s from the time of entering water from a quadrant opposing the target quadrant. The results of the water maze positioning and navigation experiment are shown in FIG. 8 (where Sham is a sham operation group).
After permanent ligation of the bilateral common carotid arteries, a 5-day positioning training was carried out, and […] Morris water maze space exploration experiment was performed after the training.

[3] = Acute toxicity test of TG-028; format: in vivo
Protocol: In addition, an acute toxicity test of TG-028 was conducted.

Compound: COc1ccc(CCCCO[C@@H]2O[C@H](CO)[C@@H](O)[C@H](O)[C@H]2O)cc1 [TG-028]
- promotion of proliferation of endothelial cells (in words) [1]: more potent promotion on the proliferation of endothelial cells than the direct treatment of endothelial cells with VEGF
- HE staining and Nissl staining of brain sections, hippocampal CA3 neurons (in words) ([2]; 3 weeks after chronic cerebral ischemia, compared with 2VO+NaCl, FIG. 10): neatly and densely arranged
- Morris water maze positioning and navigation: escape incubation period and total distance (in words) ([2]; TG-028 5 mg/kg, Edaravone 40 mg/kg, 3 weeks of administration, FIG. 8): comparable effect
- Morris water maze space exploration: number of passes through the platform compared with 2VO+NaCl group ([2]; TG-028 5 mg/kg, Edaravone 40 mg/kg, 3 weeks, FIG. 9): increases significantly
- change in body weight compared with sham operation group (in words) ([2]; TG-028 5 mg/kg, Edaravone 40 mg/kg, i.p. daily, after 1 week, FIG. 7): no difference in weight change between the treatment group with TG-028 and the sham operation group
- therapeutic index LD50/ED50 ([3]; 616.59/2.61): 236
- LD50 ([3]; in vivo, acute toxicity test): 617 mg/kg
